In paper PMC8286840, “Identifying SARS-CoV-2 antiviral compounds by screening for small molecule inhibitors of Nsp3 papain-like protease” (Biochemical Journal, 2021):
Counter-ions that a name gives are not always drawn. Like-named read-outs stand apart in the source and are kept apart here.

Tests used:
[1] = biological target: T1, SARS-CoV-2 PLpro (nsp3 1564–1878) (Severe acute respiratory syndrome coronavirus 2, UniProt P0DTD1); experiment: biochemical; parameters: FRET-quenched peptide (Pro3) cleavage by PLpro, 10 min pre-incubation, slope over 20 min, normalised to no-compound control; conditions: high concentration screen, read-out: % of control remaining
[2] = biological target: T1, SARS-CoV-2 PLpro (nsp3 1564–1878); experiment: biochemical; parameters: FRET-quenched peptide (Pro3) cleavage by PLpro, 10 min pre-incubation, slope over 20 min, normalised to no-compound control; conditions: low concentration screen, read-out: % of control remaining

Nc1ccn([C@H]2C[C@H](O)[C@@H](CO)O2)c(=O)n1 [2'-Deoxycytidine (hydrochloride)]
remaining activity at 3.75 µM ([1]; Well no.=7806): 109%
remaining activity at 1.25 µM ([2]; Well no.=7806): 105%

O=C(O)C(O)Cc1ccc(O)c(O)c1 (stereo not drawn) [Sodium Danshensu]
remaining activity at 3.75 µM ([1]; Well no.=4868): 100%
remaining activity at 1.25 µM ([2]; Well no.=4868): 100%

C#C[C@]1(CO)O[C@@H](n2cnc3c(N)nc(F)nc32)C[C@@H]1O [Islatravir]
remaining activity at 3.75 µM ([1]; Well no.=7822): 105%
remaining activity at 1.25 µM ([2]; Well no.=7822): 105%

Clc1ccc(C(Cn2ccnc2)OCc2ccc(Sc3ccccc3)cc2)c(Cl)c1 (stereo not drawn) [Fenticonazole nitrate]
remaining activity at 3.75 µM ([1]; Well no.=5044): 95.9%
remaining activity at 1.25 µM ([2]; Well no.=5044): 96.2%

O=C1Cc2c([nH]c3ccc(Br)cc23)-c2ncccc2N1 [1-Azakenpaullone]
remaining activity at 3.75 µM ([1]; Well no.=2335): 97.1%
remaining activity at 1.25 µM ([2]; Well no.=2335): 96.4%

CCCCn1c2ccc(O)cc2c2c3c(c(-c4ccccc4Cl)cc21)C(=O)NC3=O [Wee1 Inhibitor II]
remaining activity at 3.75 µM ([1]; Well no.=2685): 88.5%
remaining activity at 1.25 µM ([2]; Well no.=2685): 90.9%

COC(=O)C1=CO[C@@H](O[C@@H]2O[C@H](CO)[C@@H](O)[C@H](O)[C@H]2O)[C@@H]2C(CO)=CC[C@H]12 [Geniposide]
remaining activity at 3.75 µM ([1]; Well no.=5206): 97.9%
remaining activity at 1.25 µM ([2]; Well no.=5206): 102%

COc1ccc2c(c[n+](C)c3c4cc5c(cc4ccc23)OCO5)c1OC [Chelerythrine]
remaining activity at 3.75 µM ([1]; Well no.=3533): 101%
remaining activity at 1.25 µM ([2]; Well no.=3533): 102%

CO[C@H]1CC[C@@H](C(=O)c2ccc3nc4c(cc3c2)CCCO4)CC1 [JNJ16259685]
remaining activity at 3.75 µM ([1]; Well no.=6955): 102%
remaining activity at 1.25 µM ([2]; Well no.=6955): 100%

C=CCN1C[C@H](C)N([C@H](c2ccc(C(=O)N(CC)CC)cc2)c2cccc(OC)c2)C[C@H]1C [SNC80]
remaining activity at 3.75 µM ([1]; Well no.=1216): 102%
remaining activity at 1.25 µM ([2]; Well no.=1216): 99.3%

COc1cc2c(cc1OC)[C@@H]1Cc3ccc(OC)c(OC)c3CN1CC2 [Rotundine]
remaining activity at 3.75 µM ([1]; Well no.=4894): 94.7%
remaining activity at 1.25 µM ([2]; Well no.=4894): 96.9%

O=C(Nc1cc(Cl)cc2c1[nH]c1cnccc12)c1cccnc1 [IKK Inhibitor X]
remaining activity at 3.75 µM ([1]; Well no.=2445): 101%
remaining activity at 1.25 µM ([2]; Well no.=2445): 97.8%

CC1CNc2c(cccc2S(=O)(=O)N[C@@H](CCCNC(=N)N)C(=O)N2CC[C@@H](C)C[C@@H]2C(=O)O)C1 (stereo partly drawn) [Argatroban]
remaining activity at 3.75 µM ([1]; Well no.=2196): 97.9%
remaining activity at 1.25 µM ([2]; Well no.=2196): 97.1%

CCc1nc(N)nc(N)c1-c1ccc(Cl)cc1 [Pyrimethamine]
remaining activity at 3.75 µM ([1]; Well no.=4708): 97.2%
remaining activity at 1.25 µM ([2]; Well no.=4708): 102%

O=C(Nc1cccc(C(F)(F)F)c1)Nc1cc(S(=O)(=O)NC2CC2)ccc1-c1ccsc1 [N-cyclopropyl-4-(thiophen-3-yl)-3-(3-(3-(trifluoromethyl)phenyl)ureido)benzenesulfonamide]
remaining activity at 3.75 µM ([1]; Well no.=5549): 103%
remaining activity at 1.25 µM ([2]; Well no.=5549): 100%

N[C@@H](CCC(=O)O)C(=O)O [(S)-Glutamic acid]
remaining activity at 3.75 µM ([1]; Well no.=6165): 96.9%
remaining activity at 1.25 µM ([2]; Well no.=6165): 98.9%

CCC(C)(O)C(=O)O (stereo not drawn) [2-Hydroxy-2-methylbutanoic acid]
remaining activity at 3.75 µM ([1]; Well no.=6357): 93.4%
remaining activity at 1.25 µM ([2]; Well no.=6357): 96.5%

O=C(/C=C/c1ccc(O)c(O)c1)O[C@@H]1C[C@](O)(C(=O)O)C[C@@H](O)[C@H]1O [Chlorogenic acid]
remaining activity at 3.75 µM ([1]; Well no.=3510): 103%
remaining activity at 1.25 µM ([2]; Well no.=3510): 103%

Cc1cccc(C(C)c2c[nH]cn2)c1C (stereo not drawn) [Medetomidine (hydrochloride)]
remaining activity at 3.75 µM ([1]; Well no.=7479): 99.7%
remaining activity at 1.25 µM ([2]; Well no.=7479): 103%

CC(C)(O)[C@H]1CC[C@@](C)([C@H]2[C@@H](O)C[C@@]3(C)[C@@H]4C[C@H](O[C@@H]5O[C@H](CO)[C@@H](O)[C@H](O)[C@H]5O)[C@H]5C(C)(C)[C@@H](O[C@@H]6OC[C@@H](O)[C@H](O)[C@H]6O)CC[C@@]56C[C@@]46CC[C@]23C)O1 [Astragaloside A]
remaining activity at 3.75 µM ([1]; Well no.=5238): 102%
remaining activity at 1.25 µM ([2]; Well no.=5238): 98.6%

COc1cccc2c1C(=O)c1c(O)c3c(c(O)c1C2=O)C[C@@](O)(C(C)=O)C[C@@H]3O[C@H]1C[C@H](N)[C@H](O)[C@H](C)O1 [Daunorubicin]
remaining activity at 3.75 µM ([1]; Well no.=1708): 97.4%
remaining activity at 3.75 µM ([1]; Well no.=3221): 104%
remaining activity at 1.25 µM ([2]; Well no.=1708): 96.8%
remaining activity at 1.25 µM ([2]; Well no.=3221): 103%

CCNC(=O)CC[C@H](N)C(=O)O [L-Theanine]
remaining activity at 3.75 µM ([1]; Well no.=3522): 99%
remaining activity at 1.25 µM ([2]; Well no.=3522): 97.3%

Nc1ccc(S(=O)(=O)NC(=O)c2ccccc2)cc1 [Sulfabenzamide]
remaining activity at 3.75 µM ([1]; Well no.=7306): 102%
remaining activity at 1.25 µM ([2]; Well no.=7306): 103%

NCCS(=O)O [Hypotaurine]
remaining activity at 3.75 µM ([1]; Well no.=464): 102%
remaining activity at 3.75 µM ([1]; Well no.=7779): 103%
remaining activity at 1.25 µM ([2]; Well no.=464): 102%
remaining activity at 1.25 µM ([2]; Well no.=7779): 106%

Oc1cc(Cl)ccc1Oc1ccc(Cl)cc1Cl [Triclosan]
remaining activity at 3.75 µM ([1]; Well no.=8252): 98.2%
remaining activity at 1.25 µM ([2]; Well no.=8252): 101%

O=C(/C=C/c1ccc(O)cc1)CC(=O)/C=C/c1ccc(O)cc1 [bis-demethoxycurcumin]
remaining activity at 3.75 µM ([1]; Well no.=4089): 101%
remaining activity at 1.25 µM ([2]; Well no.=4089): 98.7%

CN(C)CC(C)(C)CNc1nn2c(-c3ccccc3)nnc2cc1C1CCC1 [Akt-I-1]
remaining activity at 3.75 µM ([1]; Well no.=2707): 106%
remaining activity at 1.25 µM ([2]; Well no.=2707): 107%

CCC1=C[C@@H]2CN3CCc4c([nH]c5ccccc45)[C@@](C(=O)OC)(C2)[C@@H]13 [Catharanthine]
remaining activity at 3.75 µM ([1]; Well no.=3595): 107%
remaining activity at 1.25 µM ([2]; Well no.=3595): 104%

Nc1c2c(nc3ccccc13)CCCC2O (stereo not drawn) [Hydroxytacrine]
remaining activity at 3.75 µM ([1]; Well no.=1671): 103%
remaining activity at 1.25 µM ([2]; Well no.=1671): 103%

CC(C)N(CCNC(=O)CN1CCCC1=O)C(C)C [Pramiracetam]
remaining activity at 3.75 µM ([1]; Well no.=4950): 96.4%
remaining activity at 1.25 µM ([2]; Well no.=4950): 96.1%

CC1(C)CC[C@]2(C(=O)O)CC[C@]3(C)C(=CC[C@@H]4[C@@]5(C)CC[C@H](O)C(C)(C)[C@@H]5CC[C@]43C)[C@@H]2C1 [Oleanolic acid]
remaining activity at 3.75 µM ([1]; Well no.=3448): 91.6%
remaining activity at 3.75 µM ([1]; Well no.=6443): 96.8%
remaining activity at 1.25 µM ([2]; Well no.=3448): 96.1%
remaining activity at 1.25 µM ([2]; Well no.=6443): 95.4%

COC1=CC(c2cc3ccccc3[nH]2)=N/C1=C\c1[nH]c(C)cc1C [Obatoclax mesylate (GX15-070)]
remaining activity at 3.75 µM ([1]; Well no.=4619): 98.7%
remaining activity at 1.25 µM ([2]; Well no.=4619): 95.3%

c1ccc2c(c1)[I+]c1ccccc1-2 [Diphenyleneiodonium chloride]
remaining activity at 3.75 µM ([1]; Well no.=591): 105%
remaining activity at 1.25 µM ([2]; Well no.=591): 99.6%
